Read-outs that look alike come from different tables or passages of the source.

What all share (details): labelled compound; empty-vector values used to normalize
Experiment [1] deals with ClAAP3.
Experiment [2] deals with ClAAP6.
Experiment [3] has as its system T1, ClAAP3.
T1 construct: untagged; expressed in S. cerevisiae 22Δ10α lacking endogenous amino acid transporters
In words: [3H]Arg uptake into yeast […]Δ[…]α cells. The experiment is classed as cell-based, Citrullus lanatus.

Experiment [4] deals with T2, ClAAP6.
T2 construct: untagged; expressed in S. cerevisiae 22Δ10α lacking endogenous amino acid transporters
Description: [3H]Arg uptake into yeast […]Δ[…]α cells. It is filed as cell-based, Citrullus lanatus.

As a reminder, the Km is the substrate concentration at which the rate is half of its maximum. `O=C(O)[C@@H]1CCCN1` [Pro]: the results for the Michaelis-Menten constant (Km) in the experiment on ClAAP3 [1] and with ClAAP6 [2] were 398 ± 48.6 µM and 74 ± 9.8 µM, respectively.

Turning to `N=C(N)NCCC[C@H](N)C(=O)O` [Arg], the Michaelis-Menten constant (Km) was determined as 54.1 ± 7.5 µM with ClAAP3 [3] and 579 ± 24.1 µM in the experiment with ClAAP6 [4].
